# From patent US20110189308A1, “METHODS TO TREAT NEURODEGENERATIVE CONDITIONS OR DISEASES BY TARGETING COMPONENTS OF A PTEN SIGNALING PATHWAY” (priority 2008, published 2011)
# Tested on: primary cortical cultures from (Atg7^flox/flox) mice
# Experiment: Process length in primary cortical cultures from Atg7 flox/flox mice transfected with Cre plasmid, with PI3K inhibitors
# Assay type: cell-based, mouse
# Conditions: FIG. 16D; 10 μM Wortmannin or 50 μM LY294002; n>45 neurons per group; mean±S.E.
# Text: FIGS. 16A-16D. Primary midbrain neuronal cultures from autophagy-deficient Dat^Cre/+Atg7^flox/flox mice display prolonged neurites. FIG. 16A, Elongated processes in TH-positive neurons in primary midbrain cultures from autophagy-deficient (Dat^Cre/+Atg7^flox/flox) mice relative to controls (Dat^Cre/+Atg7^flox/wild). FIG. 16B, The elongated process phenotype is also apparent in primary cortical cultures from (Atg7^flox/flox) mice transfected with Cre-recombinase encoding plasmid (along with GFP plasmid) compared to primary neurons transfected with GFP plasmid alone. […] FIG. 16C, Quantitation of process length as in (A). Dat^Cre/+Atg7^flox/wild versus Dat^Cre/+Atg7^flox/flox; 0.933±0.098 mm versus 1.704±0.139 mm, p<0.01. n>49 neurons per group in at least three separate independent experiments. FIG. 16D, quantification of data as in (C). Dat^Cre/+Atg7^flox/wild versus Dat^Cre/+Atg7^flox/flox; 0.428±0.036 mm versus 0.721±0.073 mm (DMSO), 0.198±0.018 mm versus 0.217±0.021 mm (Wortmannin, WM), and 0.158±0.015 mm versus 0.176±0.018 mm (LY294002, LY). n>45 neurons per group in at least three separate independent experiments. Bar, 50 μm.**, P<0.01.
# Cell Culture. For midbrain culture, midbrain tissues were dissected from newborn mice (postnatal 0 day). The tissues were minced and digested in isolation medium containing 0.25% trypsin and ascorbic acid at 37° C. for 30 min. After the incubation, the digestion was stopped by 3% fetal bovine serum and 0.25% Dnase I. The tissues were triturated 20 times by glass-pipette and filtrated by cell strainer. They were centrifuged at 1,200 rpm for 5 min, and the supernatants were removed. The cells were suspended in plating medium containing 10% fetal bovine serum and plated on poly-D-lysine and laminin-coated 24-well plates. On the next day, the plating medium was replaced by culture medium containing 1% fetal bovine serum and antimitotic agent. The cells were kept on 37° C. for three more days. For cortical culture, cortical tissues were dissected from newborn mice (postnatal 0 day). The tissues were minced and digested in isolation medium containing 0.25% trypsin at 37° C. for 30 min. After the incubation, the digestion was stopped by 3% fetal bovine serum and 0.25% Dnase I. The tissues were triturated 20 times by glass-pipet and filtrated by cell strainer. They were centrifuged at 1,200 rpm for 5 min, and the supernatants were removed. The cells were suspended in plating medium containing 10% fetal bovine serum and plated on poly-D-lysine and laminin-coated 24-well plates. On second day, the cells were transfected with GFP or Cre expression plasmids. To transfect the plasmids, the cells were washed in 500 μl DMEM and added 30 μl of DNA/Ca/Phosphate complex (2 μg DNA/3.75 μl 1M CaCl2/15 μl 2× HBSS). […]
SMILES,"process length, Atg7-deficient neurons (Dat^Cre/+Atg7^flox/flox)","process length, control neurons (Dat^Cre/+Atg7^flox/wild)"
O=c1cc(N2CCOCC2)oc2c(-c3ccccc3)cccc12 [LY294002],0.176±0.018 mm,0.158±0.015 mm
COC[C@H]1OC(=O)c2coc3c2[C@@]1(C)C1=C(C3=O)[C@@H]2CCC(=O)[C@@]2(C)C[C@H]1OC(C)=O [Wortmannin],0.217±0.021 mm,0.198±0.018 mm
